Data: EP0145484B1, “Vancomycin purification improvement and product” (ELI LILLY AND COMPANY, priority 1983, dated 1985)

Test: Stability of bulk samples on storage
Type: physicochemical
Settings: three lots prepared by the method of Example 2, stored at 21-28°C in polyethylene containers; over a twelve month period; 525600 min
Procedure: The vancomycin diphosphate crystal form provided by this invention is a highly crystalline solid when hydrated that is stable over prolonged periods of time. The stability of bulk samples of vancomycin diphosphate was determined by preparing three lots of the compound by the method of Example 2. Samples of the three individual lots were stored at 21-28°C in polyethylene containers. Various physical parameters of each of the three lots were analyzed at zero, six, twelve and eighteen months.

Substance: vancomycin diphosphate
- initial biological activity retained: more than 90%
